Results reported in patent US9399649B2, “Compounds for treating spinal muscular atrophy” (PTC Therapeutics Inc., priority 2012, dated 2016).

What was measured:
Smn protein = Smn protein levels in tissues of Δ7 SMA mice of the survival study; assay type: in vivo; details: Compound 65 until PND 144, Compound 69 until PND 80 and PND 83, relative to vehicle treated and age-matched heterozygous mice, FIG. 16
Protocol: The tissue samples in Safe-Lock tubes are weighed and the volume of RIPA buffer containing the protease inhibitor cocktail is added based on the weight to volume ratios for each type of tissue: Brain (50 mgmL), Muscle (50 mgmL) and Spinal Cord (25 mgmL).
Tissues are homogenized using the TissueLyzer by bead milling. 5 mm stainless steel beads are added to the sample and shaken vigorously for 5 minutes at 30 Hz in the TissueLyzer. The samples are then centrifuged for 20 minutes at 14,000×g in a microcentrifuge and the homogenates transferred to the PCR plate. The homogenates are diluted in RIPA buffer to approximately 1 mgmL for HTRF and approximately 0.5 mgmL for total protein measurement using the BCA protein assay. […] Fluorescence for each well of the plate at 665 nm and 620 nm is measured on an EnVision multilabel plate reader (Perkin-Elmer). The total protein in the tissue homogenate is measured using the BCA assay according to the manufacturer's protocol.
The normalized fluorescence signal is calculated for each sample, Blank and vehicle control well by dividing the signal at 665 nm by the signal at 620 nm. Normalizing the signal accounts for possible fluorescence quenching due to the matrix effect of the tissue homogenate. […] The ΔF value for each tissue sample well is divided by the total protein quantity (determined using the BCA assay) for that tissue sample. […]

[1] = test system: gems (Smn-dependent nuclear speckles); assay: Gems count (Smn-dependent nuclear speckle count) assay; assay type: cell-based, human; details: SMA Type 1 patient cells, 48 hour, FIG. 9
Description: The level of Smn protein directly correlates with the amount of nuclear foci, also known as gems, produced upon staining the cell with a fluorescently labeled anti-Smn antibody (Liu and Dreyfuss, EMBO J., 1996, 15:3555). Gems are multi-protein complexes whose formation is nucleated by the Smn protein and the gems count assay is used to evaluate the level of Smn protein in the cell. As described herein, the gems count assay is used to quantify the level of Smn protein in SMA patient fibroblast cells treated with a test compound.
Cells are thawed and incubated in DMEM-10% FBS for 72 hours, then trypsinized, counted and resuspended to 100,000 cells/mL in DMEM-10% FBS. 2 mL of the cell suspension is plated in a 6-well cell culture plate with a sterile cover slip and incubated for 3 to 5 hours. Test compounds are serially diluted 3.16-fold in 100% DMSO to generate a 7-point dilution curve. […]
Cell culture medium is aspirated from the wells containing cover slips and gently washed three times with cold PBS. […] The number of gems is counted per ≧150 nuclei and % activation is calculated using DMSO and 10 nM bortezomib as controls. For each test compound, the cells are examined at all wavelengths to identify test compounds with inherent fluorescence.

Row | SMILES | Smn protein expression in brain and muscle tissues (Smn protein) | gems (nuclear speckle) count relative to DMSO [1]
1 | Cc1cn2cc(-c3cc4ccc(N5CCN(C)CC5)cc4c(=O)o3)nc2c(C)n1 [Cpd 65, 3-(6,8-dimethylimidazo[1,2-a]pyrazin-2-yl)-7-(4-methylpiperazin-1-yl)-1H-isochromen-1-one] | increased Smn protein expression in brain and muscle tissues | progressively more gems
2 | Cc1cn2cc(-c3cc4ccc(N5CCN6CCC[C@H]6C5)cc4c(=O)o3)nc2c(C)n1 [Cpd 69, 3-(6,8-dimethylimidazo[1,2-a]pyrazin-2-yl)-7-[(8aS)-hexahydropyrrolo[1,2-a]pyrazin-2(1H)-yl]-1H-isochromen-1-one] | increased Smn protein expression in brain and muscle tissues | progressively more gems
